Assay results published in PubChem BioAssay (NCI).
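Test compounds were applied to cells in 96-well plates for 48 hours at 5 doses. GI50: concentration for 50% inhibition of growth. Definition used: TGI = concentration required for complete inhibition of growth.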

Assays:
Assay in all cases: NCI anticancer screen, dose series, 48 h
HL-60(TB) leukemia = tested on: HL-60(TB) leukemia
SNB-75 CNS = tested on: SNB-75 CNS
KM12 colon = tested on: KM12 colon
U251 CNS = tested on: U251 CNS
NCI-H23 lung = tested on: NCI-H23 lung
SW-620 colon = tested on: SW-620 colon
COLO 205 colon = tested on: COLO 205 colon
OVCAR-5 ovarian = tested on: OVCAR-5 ovarian
NCI-H226 lung = tested on: NCI-H226 lung
SR leukemia = tested on: SR leukemia

Compound: Nc1c(C(=O)N/N=C/c2ccc(-c3cc(Cl)c(Cl)cc3Cl)o2)cnn1-c1ccnc2c(C(F)(F)F)cccc12
- GI50 (HL-60(TB) leukemia): 3.18 µM
- TGI (HL-60(TB) leukemia): > 100 µM
- GI50 (SNB-75 CNS): 4.01 µM
- TGI (SNB-75 CNS): 53 µM
- GI50 (KM12 colon): 3.83 µM
- TGI (KM12 colon): > 100 µM
- GI50 (U251 CNS): 4.18 µM
- TGI (U251 CNS): > 100 µM
- GI50 (NCI-H23 lung): 3.32 µM
- TGI (NCI-H23 lung): 47.2 µM
- GI50 (SW-620 colon): 4.05 µM
- TGI (SW-620 colon): > 100 µM
- GI50 (COLO 205 colon): 2.57 µM
- TGI (COLO 205 colon): 5.78 µM
- GI50 (OVCAR-5 ovarian): 5.29 µM
- TGI (OVCAR-5 ovarian): > 100 µM
- GI50 (NCI-H226 lung): 5.62 µM
- TGI (NCI-H226 lung): > 100 µM
- GI50 (SR leukemia): 4.53 µM
- TGI (SR leukemia): 72.9 µM
